Where a SMILES comes first, the peptide text is derived from it.
Legend:
[1] = biological target: G/T mismatch-specific thymine DNA glycosylase (Homo sapiens) (UniProt Q13569); conditions: Hit No;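 also: human TDG cleavage of quenched duplex DNA oligonucleotides coupled to APE1, strand release read as fluorescence at 594 nm, inhibition of TDG activity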
Description: Inhibition of TDG by quantifying inhibition of TDG-mediated cleavage and dissociation of quenched duplex DNA oligonucleotides, measured as fluorescence at 594 nm. To generate a functional strand incision and increase turn-over this assay is coupled to APE1.

[2] = biological target: Methyl-CpG-binding domain protein 4 (Homo sapiens) (UniProt O95243); conditions: Hit No;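 also: MBD4 activity read as fluorescence at 594 nm from cleavage and release of a quenched duplex DNA oligonucleotide, with APE1 coupled to incise the strand and raise turnover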
Description: Inhibition of MBD4 by quantifying inhibition of MBD4-mediated cleavage and dissociation of quenched duplex DNA oligonucleotides, measured as fluorescence at 594 nm. To generate a functional strand incision and increase turn-over this assay is coupled to APE1.

[3] = biological target: T1, Endonuclease 8-like 2 (Homo sapiens) (UniProt Q969S2); conditions: Hit No;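 also: fluorescence at 594 nm reports NEIL2 cutting and release of a quenched double-stranded DNA oligo substrate, reduced signal read as inhibition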
T1 sequence (whole entry): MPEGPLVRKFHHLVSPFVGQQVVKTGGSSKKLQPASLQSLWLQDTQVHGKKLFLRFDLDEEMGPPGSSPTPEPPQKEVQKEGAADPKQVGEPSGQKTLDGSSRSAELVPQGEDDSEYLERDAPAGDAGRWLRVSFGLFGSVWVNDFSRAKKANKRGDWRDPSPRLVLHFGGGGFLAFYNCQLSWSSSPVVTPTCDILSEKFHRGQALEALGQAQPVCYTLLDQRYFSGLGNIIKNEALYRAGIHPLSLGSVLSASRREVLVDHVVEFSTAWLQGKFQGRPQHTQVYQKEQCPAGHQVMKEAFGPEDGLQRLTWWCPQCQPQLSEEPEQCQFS
Description: Inhibition of NEIL2 by quantifying inhibition of NEIL2-mediated cleavage and dissociation of quenched duplex DNA oligonucleotides, measured as fluorescence at 594 nm.

[4] = biological target: Endonuclease 8-like 1 (Homo sapiens) (UniProt Q96FI4); conditions: Hit No;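 also: fluorescence at 594 nm from quenched duplex DNA oligonucleotides released by NEIL1 cleavage and strand separation, reported as reduction of this enzyme activity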
Description: Inhibition of NEIL1 by quantifying inhibition of NEIL1-mediated cleavage and dissociation of quenched duplex DNA oligonucleotides, measured as fluorescence at 594 nm.

[5] = biological target: T2, Single-strand selective monofunctional uracil DNA glycosylase (Homo sapiens) (UniProt Q53HV7); conditions: Hit No;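 also: enzymatic SMUG1 assay coupled with APE1, reading fluorescence at 594 nm released when a quenched double-stranded DNA oligonucleotide substrate is cleaved and separated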
T2 sequence (whole entry): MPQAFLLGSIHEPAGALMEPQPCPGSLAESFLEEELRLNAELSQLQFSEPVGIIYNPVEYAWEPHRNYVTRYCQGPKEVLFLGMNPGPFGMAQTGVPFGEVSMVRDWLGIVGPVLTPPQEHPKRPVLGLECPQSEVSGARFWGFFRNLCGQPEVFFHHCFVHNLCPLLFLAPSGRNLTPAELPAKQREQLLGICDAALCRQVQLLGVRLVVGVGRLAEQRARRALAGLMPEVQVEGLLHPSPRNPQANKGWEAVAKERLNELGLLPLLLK
Description: Inhibition of SMUG1 by quantifying inhibition of SMUG1-mediated cleavage and dissociation of quenched duplex DNA oligonucleotides, measured as fluorescence at 594 nm. To generate a functional strand incision and increase turn-over this assay is coupled to APE1.

[6] = biological target: Uracil-DNA glycosylase (Homo sapiens) (UniProt P13051); conditions: Hit No;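 also: UNG excision on a quenched double-stranded DNA oligo probe, with APE1 added for strand incision and turnover, read as fluorescence at 594 nm as strands separate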
Description: Inhibition of UNG by quantifying inhibition of UNG-mediated cleavage and dissociation of quenched duplex DNA oligonucleotides, measured as fluorescence at 594 nm. To generate a functional strand incision and increase turn-over this assay is coupled to APE1.

[7] = biological target: T3, Adenine DNA glycosylase (Homo sapiens) (UniProt Q9UIF7); conditions: Hit No;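 also: human MUTYH activity read as 594 nm fluorescence from cleavage and release of a quenched DNA duplex, coupled with APE1 for strand incision, lower signal meaning inhibition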
T3 sequence (whole entry): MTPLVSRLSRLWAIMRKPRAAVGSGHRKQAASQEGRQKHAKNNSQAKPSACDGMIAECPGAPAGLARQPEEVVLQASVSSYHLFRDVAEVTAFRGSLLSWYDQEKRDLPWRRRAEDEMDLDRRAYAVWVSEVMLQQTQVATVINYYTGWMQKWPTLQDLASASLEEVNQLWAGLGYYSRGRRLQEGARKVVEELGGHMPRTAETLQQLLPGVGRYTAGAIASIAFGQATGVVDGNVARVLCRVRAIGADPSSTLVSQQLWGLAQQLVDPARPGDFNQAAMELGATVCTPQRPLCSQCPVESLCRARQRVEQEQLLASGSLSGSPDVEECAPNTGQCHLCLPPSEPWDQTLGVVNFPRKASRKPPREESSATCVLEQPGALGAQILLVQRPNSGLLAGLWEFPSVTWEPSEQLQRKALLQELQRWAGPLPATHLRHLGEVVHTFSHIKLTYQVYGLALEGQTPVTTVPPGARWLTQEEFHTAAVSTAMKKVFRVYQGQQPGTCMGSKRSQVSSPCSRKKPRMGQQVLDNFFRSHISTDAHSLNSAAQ
Description: Inhibition of MUTYH by quantifying inhibition of MUTYH-mediated cleavage and dissociation of quenched duplex DNA oligonucleotides, measured as fluorescence at 594 nm. To generate a functional strand incision and increase turn-over this assay is coupled to APE1.

[8] = biological target: N-glycosylase/DNA lyase (Homo sapiens) (UniProt O15527);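 also: OGG1 cleavage of a quenched duplex DNA oligonucleotide, coupled to APE1 for strand incision, read as fluorescence at 594 nm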
Description: Inhibition of OGG1 by quantifying inhibition of OGG1-mediated cleavage and dissociation of quenched duplex DNA oligonucleotides, measured as fluorescence at 594 nm. To generate a functional strand incision and increase turn-over this assay is coupled to APE1.

[9] = biological target: T4, Endonuclease III-like protein 1 (Homo sapiens) (UniProt P78549); conditions: Compound Concentration 10.0 uM, Hit No;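 also: enzyme assay tracking NTHL1 cutting and release of a quenched double-stranded DNA oligo substrate, read as fluorescence at 594 nm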
T4 sequence (whole entry): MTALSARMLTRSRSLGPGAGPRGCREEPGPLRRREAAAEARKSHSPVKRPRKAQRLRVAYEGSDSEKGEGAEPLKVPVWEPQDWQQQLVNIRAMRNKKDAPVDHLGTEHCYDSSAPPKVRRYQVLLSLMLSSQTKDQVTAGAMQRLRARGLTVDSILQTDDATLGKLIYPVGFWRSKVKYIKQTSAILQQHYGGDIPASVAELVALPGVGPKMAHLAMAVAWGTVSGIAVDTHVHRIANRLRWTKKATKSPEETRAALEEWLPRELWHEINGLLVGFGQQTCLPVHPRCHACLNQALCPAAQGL
Description: Inhibition of NTHL1 by quantifying inhibition of NTHL1-mediated cleavage and dissociation of quenched duplex DNA oligonucleotides, measured as fluorescence at 594 nm.

[10] = Compound Concentration 10.0 uM, Hit No
[11] = Compound Concentration 1.0 uM, Hit No

Uracil-DNA glycosylase (Homo sapiens), sequence (P13051 whole entry): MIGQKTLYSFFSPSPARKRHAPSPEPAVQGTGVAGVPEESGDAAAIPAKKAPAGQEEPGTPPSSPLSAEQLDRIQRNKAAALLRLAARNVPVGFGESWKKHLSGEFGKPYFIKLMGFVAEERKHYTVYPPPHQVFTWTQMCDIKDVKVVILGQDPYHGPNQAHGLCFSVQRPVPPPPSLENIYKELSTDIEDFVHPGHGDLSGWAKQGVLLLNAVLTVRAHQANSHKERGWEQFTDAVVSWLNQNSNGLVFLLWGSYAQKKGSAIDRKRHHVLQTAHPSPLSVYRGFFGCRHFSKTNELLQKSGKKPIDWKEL
N-glycosylase/DNA lyase (Homo sapiens), sequence (O15527 whole entry): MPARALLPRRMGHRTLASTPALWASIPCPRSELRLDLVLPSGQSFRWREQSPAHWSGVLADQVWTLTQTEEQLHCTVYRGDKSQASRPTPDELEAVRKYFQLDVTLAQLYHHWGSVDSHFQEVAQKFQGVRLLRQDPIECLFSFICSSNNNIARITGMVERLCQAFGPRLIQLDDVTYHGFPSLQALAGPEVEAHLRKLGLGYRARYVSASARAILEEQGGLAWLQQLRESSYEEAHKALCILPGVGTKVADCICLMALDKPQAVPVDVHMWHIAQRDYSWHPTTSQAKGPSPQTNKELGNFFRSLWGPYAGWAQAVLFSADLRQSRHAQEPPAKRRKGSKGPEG
Endonuclease 8-like 1 (Homo sapiens), sequence (Q96FI4 whole entry): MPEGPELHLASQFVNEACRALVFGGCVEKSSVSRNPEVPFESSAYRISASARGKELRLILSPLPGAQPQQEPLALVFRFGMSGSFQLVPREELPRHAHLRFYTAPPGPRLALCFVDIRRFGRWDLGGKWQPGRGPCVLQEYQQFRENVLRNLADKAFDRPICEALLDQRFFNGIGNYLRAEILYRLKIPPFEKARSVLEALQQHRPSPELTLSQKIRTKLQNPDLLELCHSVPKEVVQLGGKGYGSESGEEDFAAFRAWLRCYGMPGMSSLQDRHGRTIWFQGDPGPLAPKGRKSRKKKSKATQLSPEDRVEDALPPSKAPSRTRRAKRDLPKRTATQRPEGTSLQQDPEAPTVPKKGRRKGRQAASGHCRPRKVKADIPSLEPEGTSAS
G/T mismatch-specific thymine DNA glycosylase (Homo sapiens), sequence (Q13569 whole entry, the tested form may be a part): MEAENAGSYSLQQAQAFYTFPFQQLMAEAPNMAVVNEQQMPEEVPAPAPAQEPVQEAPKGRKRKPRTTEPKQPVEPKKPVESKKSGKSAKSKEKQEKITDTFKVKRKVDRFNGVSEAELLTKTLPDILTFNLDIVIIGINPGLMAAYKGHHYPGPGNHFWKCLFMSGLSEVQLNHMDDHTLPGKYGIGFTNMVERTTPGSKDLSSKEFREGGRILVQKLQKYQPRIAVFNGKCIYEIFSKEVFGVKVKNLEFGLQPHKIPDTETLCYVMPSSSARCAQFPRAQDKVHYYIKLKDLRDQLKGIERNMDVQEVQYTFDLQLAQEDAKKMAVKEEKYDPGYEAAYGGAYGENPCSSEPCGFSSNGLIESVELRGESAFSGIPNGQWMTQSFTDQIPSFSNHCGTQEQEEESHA
Methyl-CpG-binding domain protein 4 (Homo sapiens), sequence (O95243 whole entry, the tested form may be a part): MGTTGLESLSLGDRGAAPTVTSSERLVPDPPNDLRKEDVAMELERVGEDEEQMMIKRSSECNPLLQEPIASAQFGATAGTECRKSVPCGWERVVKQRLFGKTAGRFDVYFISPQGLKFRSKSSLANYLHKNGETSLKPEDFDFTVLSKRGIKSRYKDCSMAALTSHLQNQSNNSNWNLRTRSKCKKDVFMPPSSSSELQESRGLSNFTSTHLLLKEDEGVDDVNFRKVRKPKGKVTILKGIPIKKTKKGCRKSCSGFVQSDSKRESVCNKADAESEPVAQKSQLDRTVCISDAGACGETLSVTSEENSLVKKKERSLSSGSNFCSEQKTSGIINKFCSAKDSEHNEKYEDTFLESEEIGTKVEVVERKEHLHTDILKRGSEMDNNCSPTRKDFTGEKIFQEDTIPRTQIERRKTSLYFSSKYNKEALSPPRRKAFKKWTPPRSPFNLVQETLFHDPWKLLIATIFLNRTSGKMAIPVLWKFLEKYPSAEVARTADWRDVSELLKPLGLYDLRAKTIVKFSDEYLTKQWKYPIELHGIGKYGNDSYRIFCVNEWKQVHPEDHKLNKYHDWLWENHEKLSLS

| SMILES | inhibition ([1]; Compound Concentration 1.0 uM) | inhibition ([2]; Compound Concentration 1.0 uM) | inhibition ([3]; Compound Concentration 1.0 uM) | inhibition ([4]; Compound Concentration 1.0 uM) | inhibition ([5]; Compound Concentration 1.0 uM) | inhibition ([6]; Compound Concentration 1.0 uM) | inhibition ([7]; Compound Concentration 1.0 uM) | inhibition [8, 10] | inhibition ([1]; Compound Concentration 10.0 uM) | inhibition ([3]; Compound Concentration 10.0 uM) | inhibition ([4]; Compound Concentration 10.0 uM) | inhibition ([5]; Compound Concentration 10.0 uM) | inhibition ([7]; Compound Concentration 10.0 uM) | inhibition ([2]; Compound Concentration 10.0 uM) | inhibition ([6]; Compound Concentration 10.0 uM) | inhibition [8, 11] | inhibition [9] | inhibition ([8]; Compound Concentration 10.0 uM, Hit Yes) |
| --- | --- | --- | --- | --- | --- | --- | --- | --- | --- | --- | --- | --- | --- | --- | --- | --- | --- | --- |
| CC(C)c1cc(Nc2nc(N3CCC[C@H](N)C3)ncc2C(N)=O)cc(C(C)C)n1 | 25.2% | -6.11% | 11.5% | -3.69% | 11.3% | 1.59% | 0.673% | – | – | – | – | – | – | – | – | – | – | – |
| COc1ccc(C(=O)N2CCN(C(=O)/C=C/c3ccc(Br)cc3)CC2)cc1 | – | – | – | – | – | – | – | -3.17% | -0.119% | -6.97% | 2.61% | -0.421% | 16.7% | – | – | – | – | – |
| CCc1cccc(CC)c1NC(=O)c1nn(C)c2c1CCc1cnc(Nc3ccc(C(=O)NC4CCN(C)CC4)cc3OC(F)(F)F)nc1-2 | – | – | – | – | – | – | – | – | 38.9% | 13.7% | 2.12% | 13.4% | -6.43% | 12.9% | 2.73% | – | – | – |
| COc1ccc(S(=O)(=O)c2cc(OC)ccc2S(=O)(=O)c2ccc([C@H](C)NS(C)(=O)=O)cc2)cc1 | – | – | – | – | – | – | – | -5.59% | -5.72% | 4.76% | 2.76% | 4.18% | 12.1% | – | – | – | – | – |
| Clc1cccc(COc2cncc(N3CCNCC3)n2)c1 | – | – | – | – | – | – | – | – | -5.02% | 1.26% | 5.13% | 1.71% | 5.27% | -8.79% | -8.45% | – | – | – |
| Cc1c(CC(=O)O)c2cccnc2n1Cc1ccc(S(C)(=O)=O)cc1C(F)(F)F | – | – | – | – | – | – | – | -4.75% | -3.98% | 7.75% | 0.834% | -4.39% | 7.57% | – | – | – | – | – |
| CC(C)C[C@@H]1NC(=O)[C@@H](C(C)C)NC(=O)[C@@H]2CCCN2C(=O)[C@@H](CC(=O)O)NC(=O)[C@@H](Cc2c[nH]c3ccccc23)NC1=O (HELM PEPTIDE1{L.[dW].[dD].P.[dV]}$PEPTIDE1,PEPTIDE1,1:R1-5:R2$$$V2.0) | – | – | – | – | – | – | – | – | 0.54% | 0.764% | -3.47% | -0.372% | 6.29% | -8.68% | – | – | – | – |
| CN1CCN(c2ccc(OC(F)(F)F)c(Nc3ncc4c(n3)-c3c(c(C(N)=O)nn3CCO)CC4)c2)CC1 | 38.7% | – | -8.92% | 1.33% | 13.3% | 3.38% | 27.3% | – | – | – | – | – | – | – | – | -4.24% | – | – |
| CN(c1ccnc(CNc2nc(Nc3ccc4c(c3)CC(=O)N4)ncc2C(F)(F)F)n1)S(C)(=O)=O | 72% | 26.2% | -6.14% | 1.52% | 15.5% | 0.644% | 1.9% | – | – | – | – | – | – | – | – | – | – | – |
| Cc1nc[nH]c1CCN | – | – | – | – | – | – | – | -7.09% | 8.2% | -3.73% | -5.39% | -7.49% | -5.1% | – | – | – | – | – |
| CCOC(=O)c1c(/C(C#N)=C\N)c2ccc(Cl)c(Cl)c2n1C | 41.6% | – | -5.96% | -2.9% | 12.4% | 0.379% | -2.85% | – | – | – | – | – | – | – | – | -3.98% | – | – |
| NC[C@@H]1O[C@H](C23CC4CC(CC(C4)C2)C3)Cc2c1ccc(O)c2O | – | – | – | – | – | – | – | – | 31.8% | 24.7% | 18.5% | 12.4% | 23.1% | -8.04% | -2.15% | – | – | – |
| NC[C@H](O)c1ccc(O)c(O)c1 | – | – | – | – | – | – | – | -2.34% | – | -0.983% | 2.61% | – | -7.66% | – | – | – | – | – |
| Cc1cc(NC(=O)Nc2ccc(N(C)C)cc2)c2cc(F)cc(F)c2n1 | – | – | – | – | – | – | – | – | 9.41% | – | – | -2.31% | 6.04% | 6.31% | -7.93% | – | – | – |
| Cc1cc(C(=O)N2Cc3cnn(C)c3Nc3ccccc32)ccc1CNC(=O)N1CCC[C@H]1C(=S)N1CCCN(C)CC1 | – | – | – | – | – | – | – | -7% | -7.26% | 2.51% | -1.83% | -2.21% | -9.83% | – | – | – | – | – |
| CCC(=O)Nc1cccc(Oc2nc(Nc3ccc(N4CCN(C)CC4)cc3OC)ncc2Cl)c1 | – | – | – | – | – | – | – | – | 56.8% | -8.65% | -1.18% | 21.8% | -2.48% | -9.91% | -2.02% | – | – | – |
| C[C@@H](N)Cc1c[nH]cn1 | – | – | – | – | – | – | – | -8% | 19% | -9.22% | 3.8% | -2.12% | -1.26% | – | -6.39% | – | – | – |
| COc1cccc([C@@H](C)NCCCc2ccccc2Cl)c1 | – | – | – | – | – | – | – | -9.29% | 6.54% | – | -0.352% | 3.94% | -7.79% | – | – | – | – | – |
| CN1CC(=O)N=C1NC(=O)Nc1cccc(Cl)c1 | – | – | – | – | – | – | – | -2.01% | -6.27% | 3.76% | -2.58% | -1.34% | 3.99% | – | – | – | – | – |
| Oc1cc2c(cc1O)C(c1ccccc1)CNCC2 (stereo not given) | – | – | – | – | – | – | – | -0.929% | 16.1% | 7.5% | -0.945% | -4.15% | 6.16% | – | – | – | – | – |
| OC(c1ccc(-c2ccc(CN3CCN(Cc4ccncc4)CC3)cc2)c(F)c1)(C(F)(F)F)C(F)(F)F | – | – | – | – | – | – | – | -1.15% | 64.2% | -2.02% | -6.8% | -2.17% | – | 47.6% | -1.04% | – | -8.52% | – |
| CNC(=O)c1cc(C(=O)NC2CC2)cn(Cc2ccccc2)c1=O | – | – | – | – | – | – | – | 10.8% | 29.8% | -1.25% | 8.49% | -2.99% | – | 59.4% | -2.05% | – | -1.29% | – |
| C[C@@](Cc1c[nH]c2ccccc12)(NC(=O)Nc1ccc([N+](=O)[O-])cc1)C(=O)NCC1(c2ccccn2)CCCCC1 | – | – | – | – | – | – | – | -2.05% | 0.518% | 5.26% | 7.51% | 0.936% | 3.6% | – | – | – | – | – |
| O=C(NCCCC1CCCCC1)c1ccc(CNC(=O)c2cnn(-c3ccccc3)c2C(F)(F)F)cc1 | 42.2% | 56.5% | -8.65% | -2.11% | 0.918% | -2.97% | – | 4.23% | 22.8% | – | – | 6.97% | – | – | 0.115% | 7.9% | -3.4% | – |
| O=C(O)CCC/C=C\CC1C(O)CC(O)C1/C=C/C(O)COc1cccc(Cl)c1 (stereo not given) | – | – | – | – | – | – | – | -6.16% | 2.98% | -0.234% | -0.0556% | -7.54% | – | -2.64% | -7.78% | – | 21% | – |
| CC(C)Oc1ccccc1C(=O)Nc1ccccc1C(=O)Nc1cccc(S(=O)(=O)C(F)(F)F)c1 | – | – | – | – | – | – | – | – | 4.21% | -0.483% | -8.8% | – | 8.72% | – | -8.11% | – | – | – |
| CN(C)CC#Cc1ccc(OCCCc2sc(N3CCc4cccc(C(=O)Nc5nc6ccccc6s5)c4C3)nc2C(=O)O)c(F)c1 | – | – | – | – | – | – | – | – | 40.4% | -4.83% | -0.896% | 1.49% | – | 47.6% | 1.14% | – | 0.0274% | 85.3% |

Source: ChEMBL document CHEMBL5665443, “Enzyme Inhibitor Single Concentration assay results for EUbOPEN Chemogenomics Library” (2024)
